Drawing on ChEMBL document CHEMBL1142110, “Tenacibactins A-D, hydroxamate siderophores from a marine-derived bacterium, Tenacibaculum sp. A4K-17” (J Nat Prod, 2007), this text covers ED50 for 5 compounds.

Each structure is given as a SMILES string. A value given as a limit tells only on which side of the number the result lay.

The assay can be described thus: Iron-chelating activity after 4 hrs by CAS assay. The assay is classed as functional.
Consider `CC(C)CC(=O)N(O)CCCCCNC(=O)CCC(=O)N(O)CCCCCNC(=O)CCC(=O)N(O)CCCCCN`, for which the ED50 came out at 115 µM.
Regarding `COC(=O)CCC(=O)NCCCCCN(O)C(=O)CC(C)C`, the ED50 was above 1000 µM.
The compound `CC(=O)N(O)CCCCCNC(=O)CCC(=O)N(O)CCCCCNC(=O)CCC(=O)N(O)CCCCCN` displayed an ED50 of 120 µM.
The same measure for `CC(C)CC(=O)N(O)CCCCCNC(=O)CCC(=O)N(O)CCCCCNC(=O)CCC(=O)O`: 110 µM; for `CC(C)CC(=O)N(O)CCCCCNC(=O)CCC(=O)O`: above 1000 µM.
